Data reported in US8802082B2, “Rhodamine derivatives for photodynamic diagnosis and treatment” (Université de Montreal, priority 1999, dated 2014).

Key:
[1] = test system: cells from subject A, activated against B; test: Allogeneic T cell activation (one-way mixed lymphocyte culture), PDT, then proliferation assay; assay type: cell-based, human; settings: TH9402 PDT, 5-day proliferation assay
Protocol: Suspensions of cells were then incubated with 10 μM TH9402 for 40 minutes at 37° C. Cells were treated at 1×10^6 cells/mL in X-vivo-15 medium without phenol red (BioWhittaker, Walkersville, Md., USA) supplemented with 2,5% FBS. At the end of the incubation period, cells were spun down and the cell pellet resuspended in the X-vivo culture medium in the absence of dye, supplemented with 10% FBS. Cells were then placed in T-flasks (Corning, Cambridge, Mass., USA) for 90 minutes at 37° C. Following this second incubation in medium without dye, cells were exposed at 3 mm thickness to desired light energy, usually 5 joules/cm^2 using a previously described light delivery device (U.S. Pat. No. 5,798,523). Light energy was delivered using a fluorescent scanning lamp device with maximum wavelength around 512 nm.
The latter cells were serially diluted in order to obtain effector (treated cells) to target ratios ranging from 2:1 to 1:4 (4×10^4 treated effector cells/well) and incubated at 37° C. for 5 days. Eighteen hours prior to harvesting, 1 μCi of ^3H-thymidine was added. Cells were harvested using a PHD cell harvester (Cambridge Technology, Boston, Mass., USA). Radioactivity in the cell harvest was counted using a liquid scintillation counter (Beckman, Chicago, Ill., USA).
Another approach was used in this study to activate cells against specific target antigens. […]

[2] = test system: PHA-activated PB mononuclear cells; test: Phototoxicity against PHA-activated PB mononuclear cells (mixed lymphocyte reaction, 3H-thymidine; cell counts); assay type: cell-based, human
Protocol: Suspensions of cells were then incubated with 10 μM TH9402 for 40 minutes at 37° C. Cells were treated at 1×10^6 cells/mL in X-vivo-15 medium without phenol red (BioWhittaker, Walkersville, Md., USA) supplemented with 2,5% FBS. At the end of the incubation period, cells were spun down and the cell pellet resuspended in the X-vivo culture medium in the absence of dye, supplemented with 10% FBS. Cells were then placed in T-flasks (Corning, Cambridge, Mass., USA) for 90 minutes at 37° C. […]
Normal PBMC were activated by incubation at 37° C. for 48 to 72 hours in X-vivo-15 medium (Biowhittaker, Walkersville. Md. U.S.A.) supplemented with 20% AB serum (Sigma), 1% pen-strep (Gibco), 2% glutamin (Gibco) and 20 μg/ml of phytohemagglutinin-A (PHA-P)(Sigma). […] Following incubation, cells were washed and treated with the TH9402 photodynamic treatment as described above, and proliferative activity measured as described below.
The latter cells were serially diluted in order to obtain effector (treated cells) to target ratios ranging from 2:1 to 1:4 (4×10^4 treated effector cells/well) and incubated at 37° C. for 5 days. […] Radioactivity in the cell harvest was counted using a liquid scintillation counter (Beckman, Chicago, Ill., USA).
The phototoxicity of TH9402 against PHA-activated PB mononuclear cells was assessed after photodynamic treatment using 5 and 7.5 joules/cm^2 of light energy (FIG. 2). […]

[3] = test system: K562 chronic myelogeneous leukemia cell line; test: Phototoxicity of TH9402, limiting dilution assay of clonogenic cells, K562 admixed with irradiated PBMC; assay type: cell-based; settings: 10 μM TH9402 40 min, 90 min dye-free, 5 joules/cm^2, LDA 12-14 days
Protocol: T cells represent the most important population of immune cells present in the peripheral blood. […] Phototoxicity was also evaluated in parallel against the chronic myelogenous leukemia cell line K562, that had been used in U.S. Pat. Nos. 5,556,992 and 5,773,460. The CEM T cell acute lymphoblastic leukemia cell line and K562 chronic myelogeneous leukemia cell line (Lozzio, B. B. and Lozzio, C. B. (1979) Cancer Res., 3(6): 363-370) were obtained from the American Type Culture Collection (ATCC, 12301 Parklawn Drive, Rockville, Md. 20852 USA) under the accession number CCL-119 and CCL-243. Cultures were maintained at 37° C. in a humidified incubator with an atmosphere of 95% air and 5% CO2. […] Before each experiment, cell viability was assessed by trypan blue exclusion. […]
To assess the photochemotherapeutic potential and the in vitro phototoxicity of 4,5-dibromorhodamine 123 hydrobromide (TH9402), the T cell line CEM and the leukemic line K562 admixed with normal irradiated PBMC were incubated with TH9402 and exposed to 5 joules/cm^2 of light (as described above). […] Growth at each serial dilution was assessed in an “all-or-nothing” (positive or negative) fashion under an inverted phase microscope. […]

## Br.COC(=O)c1ccccc1-c1c2ccc(=N)c(Br)c-2oc2c(Br)c(N)ccc12 [TH9402, 4,5-dibromorhodamine 123 (2-(4,5-dibromo-6-amino-3-imino-3H-xanthen-9-yl)-benzoic acid methyl ester) hydrobromide]
[1]
  proliferation when exposed to C cells (mismatched unrelated): retained the capacity to proliferate
  proliferation when reexposed to cells from B: did not proliferate
[2]; PHA-activated cells treated with TH9402, 5 and 7.5 J/cm^2
  reactivity towards MHC incompatible cells (proliferation in mixed lymphocyte culture): abrogated
[2]; three days after the photodynamic treatment
  decrease of cell counts of the treated cells in comparison to the medium control: > 90%
[3]
  K562 cells escaping elimination by phototherapy in comparison to the media only sample: less than 0.1%
